According to patent US20240226100A1, “CONTROL OF PROTEIN EXPRESSION WITH TMP-PROTAC COMPOUNDS” (THE TRUSTEES OF THE UNIVERSITY OF PENNSYLVANIA, priority 2021, published 2024):

Tests used:
Type in all cases: cell-based, Escherichia coli
[1] = test system: eDHFR-YFP; assay: Washout experiment, eDHFR-YFP recovery in HEK293T eDHFR-YFP+ cells, Western blot; details: 100 nM 7c, washed twice with PBS
Procedure: HEK293T^eDHFR-YFP+ cells were seeded in a clear (Falcon) 12-well plate (3×10^5 cells/well) in complete media. The next day, cells were incubated with 100 nM 7c for 24 h in complete media. Media was removed by vacuum, cells were gently washed with 1 mL PBS 2×, then cell media was replenished. Next, cells were isolated +0 to 24 h after washing and prepared for Western blot analysis.
Protein degradation is reversed in as early as 4 h after drug removal from cell media.

[2] = test system: eDHFR-YFP; assay: Degradation of eDHFR-YFP in HEK293T eDHFR-YFP+ cells, Western blot with anti-YFP antibody; details: 100 nM, 24 h
Procedure: HEK293T eDHFR-YFP (HEK293T^eDHFR-YFP+) and OVCAR8 eDHFR-luc (OVCAR8^eDHFR-luc+) cells are prepared in clear (Falcon) 6-well plates (5×10^5 cells/well) and cultured in complete media. Compound 7c is solubilized in 100% DMSO to 10 mM. 10 mM 7c is serially diluted in sterile water accordingly and each dose administered to cells in fresh media at equal volume, such that the final concentration of DMSO in cell media is <1%. Once incubation with drug is completed, media is removed by vacuum, cells are washed with phosphate-buffered saline (PBS), trypsonized at 37° C., quenched with media, and centrifuged (Thermo Scientific Sorvall Legend X1R) at 1000 RPM for 5 minutes. Media and cell debris are removed by vacuum.
Once cells are isolated by centrifugation (Thermo Scientific Sorvall Legend X1R), they are solubilized in radioimmunoprecipitation assay (RIPA) lysis buffer with protease inhibitor. Cell lysate is incubated on ice for 30 minutes, sonicated, then centrifuged (Thermo Scientific Sorvall Legend Micro 21R) at 14,800 RPM for 10 minutes. Supernatant is removed and transferred to a new Eppendorf tube.
Using Thermo Scientific bicinchoninic acid (BCA) assay kit, total cell protein is quantified and compared to bovine serum albumin (BSA) standards ranging from 10 to 0.625 mg/mL. Cell lysate is aliquoted into a 96-well clear plate (Falcon) and mixed with reagent and shaken at 37° C. for 30 minutes. Samples are analyzed by plate reader (ThermoFisher Varioskan Plusplate), where absorbance is measured at […]. A calibration curve is developed, and samples are prepared to equal mass (mg) of total protein for gel electrophoresis.
Cell lysate is prepared by mixing with 4 uL of loading dye and PBS to give equal total protein and equal total volume across all samples. Each sample is loaded into a NuPage gel (4-12% Bis-tris) and developed in NuPage MES Running Buffer. Once complete, the gel is removed and prepared for protein transfer to membrane. […]

[3] = test system: eDHFR-YFP; assay: Degradation of YFP in HEK293T-DYL cells, flow cytometry; details: 72 and 96 h, varying doses
Description: The left panel represents the mean YFP fluorescence and the right panel represents the same data in percent of maximum YFP fluorescence normalized to HEK293T-DYL treated with DMSO.

COc1cc(Cc2cnc(N)nc2N)cc(OC)c1OCCCC(=O)NCCOCCOCCNc1cccc2c1C(=O)N(C1CCC(=O)NC1=O)C2=O (stereo not drawn) [Compound 7c, 4-(4-((2,4-diaminopyrimidin-5-yl)methyl)-2,6-dimethoxyphenoxy)-N-(2-(2-(2-((2-(2,6-dioxopiperidin-3-yl)-1,3-dioxoisoindolin-4-yl)amino)ethoxy)ethoxy)ethyl)butanamide]
time after drug removal at which protein degradation is reversed [1]: ≤ 4 h | eDHFR-YFP degradation at 100 nM [2]: causes eDHFR-YFP to degrade | degradation of YFP [3]: degraded
